Like-named read-outs stand apart in the source and are kept apart here.

In experiment [1] the test system is HeLa. Nature of the experiment: MTT cytotoxicity assay. Format: cell-based. The note with it: Homo sapiens, HeLa ATCC CRL-1958, 48 h, read-out: IC50 ± SD, HeLa. As for the experimental part:
(§1) Then, each diluted molecule was added to the cells and incubated for further 48 h at 37 °C, 5% CO2. […] The DMSO was then added to dissolve the formed formazan crystals and absorbance was determined spectrophotometrically at 570 nm. […] IC50 values were expressed as the mean ± standard deviation (M ± SD) of two independent experiments done in quadruplicate.
Background: Formazan colour is commonly taken as a measure of viable cells.

Experiment [2] concerns Jurkat. Nature of the experiment: MTT cytotoxicity assay. As to conditions: Homo sapiens, Jurkat ATCC TIB-152, 48 h, read-out: IC50 ± SD, Jurkat. Format: cell-based. The method, then:
as §1

Experiment [3] concerns Vero. Put plainly: MTT cytotoxicity assay, non-tumor cells. The format is cell-based, Cercopithecus aethiops. As to conditions: for IC50: Chlorocebus sabaeus. As for the experimental part:
The in vitro cytotoxicity evaluation of quinones was performed using the 3-(4,5 dimethylthiazol-2-yl)-2,5-diphenyltetrazolium bromide (MTT, Sigma, Cream Ridge, NJ, USA) assay as described by Betancur-Galvis et al. 2002 [22]. Briefly, Vero and HeLa cell lines were seeded at 2.0 × 10^3 cells per well of 96-well plates in DMEM supplemented with 10% of inactivated FBS, and were incubated for 24 h at 37 °C, 5% CO2. Then, each diluted molecule was added to the cells and incubated for further 48 h at 37 °C, 5% CO2. Jurkat cell line at 3 × 10^3 cells per well in a 96-well round-bottomed plate and diluted substances in RPMI-1640 medium (Sigma) supplemented with 10% FBS were plated simultaneously. After 48 h of treatment at 37 °C, 5% CO2, the media was carefully removed and 28 µL of MTT solution (4 mg/mL) was added to each well, and the plates were incubated for 2 h at 37 °C, 5% CO2. The DMSO was then added to dissolve the formed formazan crystals and absorbance was determined spectrophotometrically at 570 nm.
The minimal dilution of compound that caused 50% inhibition of the cells (IC50) was calculated by linear regression analysis of the dose-response curves generated from the absorbance data with the statistical GraphPad Prisma 5.0. IC50 values were expressed as the mean ± standard deviation (M ± SD) of two independent experiments done in quadruplicate.

In experiment [4] the test system is DENV-2. Also on record: method as in PMID 20837762. As to conditions: low concentrations; cited from earlier work.
In experiment [5] the test system is Human Herpesvirus type 1 (HHV-1). Put plainly: End-point titration technique (EPTT), anti-herpetic screening on infected Vero cells. Format: cell-based. The note with it: for Rf (reduction factor of the viral titer), HHV-1: 1 TCID50, 48 h; for minimal effective concentration: Human alphaherpesvirus 1, 1 TCID50, 48 h, read-out: 1 TCID50: non-toxic concentration that showed viral reduction factor, HHV-1. The method, then:
(§2) The in vitro antiviral evaluation of the 27 substances against Human Herpesvirus type 1 (HHV-1) and 2 (HHV-2) was made on infected Vero cells, using the end-point titration technique (EPTT).
(§3) The antiviral activity of molecules against 1 and 10 Cell Culture Infectious Dose 50% (10TCID50) of HHV-1 and HHV-2, respectively, was determined using end-point titration technique (EPTT). Vero cells grown in 96-well plates at a density of 2.0 × 10^4 cells/well were incubated at 37 °C in 5% CO2 atmosphere until constitute 80% of cell monolayer. Then, viral suspensions of HHV-1 or HHV-2 with concentrations of 6.25 µg/mL to 50 µg/mL of compounds were performed in DMEM supplemented with 2% FBS containing 1% and 0.5% carboxymethylcellulose (CMC) for HHV-1 and HHV-2, respectively. Mixture was incubated during 15 minutes at room temperature and was added to the cell monolayer. After 48 h of incubation at 37 °C (5% CO2), the cytopathic effect was examined, the microplates were fixed with 3.5% formaldehyde and stained with 0.2% crystal violet. Two independent experiments by quadruplicate for each viral serotype and each were carried out. Positive controls, such as dextran sulfate (DS) and acyclovir (A) for early stages and late stages of infection, respectively, were included.

For experiment [6], the system named is HHV-1. Put plainly: Plaque reduction assay, simultaneous and post-infection treatment, Vero cells. Format: cell-based, Human Herpesvirus 1. The method, then: (§4) To define the stage of the viral replicative cycle where NQ 4 exerts its action, simultaneous and post-infection treatments against HHV-1 and HHV-2 were performed. […] First, we determined the inhibitory concentration 50% (IC50) for the compound and drug positive controls on infected cells and their effects on non-tumoral Vero cells, to define the concentration of evaluation and to calculate the antiviral selectivity index (SI). Then, the concentration of NQ 4 that reduced the number of viral plaques by 50% (EC50) was determined from the dose-response curves.
(§5) The potential antiviral mechanism of NQ 4 was evaluated by the plaque reduction assay as previously described by us. Vero cell monolayers grown in 24-well plates were infected with 100 PFU/well of each virus. For simultaneous treatment, the compound and the virus were added simultaneously to the cell monolayers and incubated for 1 h at 37 °C (5% CO2). Then, cells were washed with phosphate buffered saline (PBS, pH = 7.0) and CMC at 1% and 0.75% was added for HHV-1 and HHV-2, respectively. In post-infection treatment, virus was added to cell monolayer and incubated for 1 h at 37 °C (5% CO2). After incubation, washing was performed with PBS and molecule previously prepared in CMC 1% and 0.75% for HHV-1 and HHV-2 respectively, was added. In both treatments, NQ 4 was prepared at concentrations from 0.4 µg/mL to 3.1 µg/mL and the cell monolayers allowed to incubate for 72 h. Subsequently, cells were fixed and stained with a solution of 3.5% formaldehyde with 0.2% crystal violet, and the viral plaques were counted. Dextran sulfate (DS) was included as positive control in simultaneous assay and acyclovir (A) was the positive control in after infection treatment.
(Plaques are areas of infected cells; plaque reduction assays count them against a control.)

In experiment [7] the test system is HHV-2. The experiment is described as above. The format is cell-based, Human Herpesvirus 2. The method, then: as §4, §5
The subject of experiment [8] is DENV-2. Put plainly: Plaque reduction assay, simultaneous and post-infection treatment, BHK-21 cells. Format: cell-based, Dengue virus type 2. The note with it: post-infective stages, ribavirin 3.7 µg/mL. The method, then:
as §4
Against DENV, the effect of NQ 4 either simultaneously or post-infection was also evaluated by the plaque reduction assay as previously described. Concentrations employed for this assay were from 0.4 µg/mL to 1.6 µg/mL. In this test, BHK-21 cell monolayers grown in 24-well plates were infected with 100 PFU/well of DENV-2 and treatments were performed in the same way to describe for Herpesviruses. Moreover, the monolayers were incubated for 6 days, fixed and stained with a solution of 3.5% formaldehyde with 0.2% crystal violet, and the viral plaques were counted. Heparin (H) was included as a positive control in the simultaneous assay, and ribavirin (R) was the positive control in after infection treatment.

In experiment [9] the test system is Human Herpesvirus type 2 (HHV-2). Put plainly: End-point titration technique (EPTT), anti-herpetic screening on infected Vero cells. The format is cell-based, Human Herpesvirus 2. As to conditions: for Rf (reduction factor of the viral titer), HHV-2: 10 TCID50, 48 h; for minimal effective concentration: Human alphaherpesvirus 2, 10 TCID50, 48 h, tested 6.25-50 µg/mL, read-out: 10 TCID50: non-toxic concentration that showed viral reduction factor, HHV-2. As for the experimental part:
as §2, §3

[10] abbreviates: Vero ATCC CCL-81, 48 h, MTT, read-out: IC50 ± SD, Vero.
The mark [11] stands for this setting: non-tumoral Vero cells, data not shown.
Setting [12] is: simultaneous treatment, PFU, NQ 4 0.4–3.1 µg/mL, DS 5 µg/mL.
The mark [13] stands for this setting: non-tumoral Vero cells, data not shown, read-out: IC50 on Vero cells.
The mark [14] stands for this setting: post-infective stages, acyclovir 1.5 µg/mL.

For orientation: IC50 means the concentration needed to halve the response being measured. In the case of `COc1cccc2c1C(=O)c1c(O)c3c(c(O)c1C2=O)C[C@@](O)(C(=O)CO)C[C@@H]3O[C@H]1C[C@H](N)[C@H](O)[C@H](C)O1` [Doxorubicin, doxorubicin, reference compound], the IC50 in experiment [1] worked out at 0.9 ± 0.1 µM; in experiment [2], 0.1 ± 0.01 µM; in experiment [3] (setting [10]), 2 ± 0.1 µM. Further, in [4], the “Activity against DENV-2 at very early stages of the viral replication cycle” value is listed as “active”.

Turning to `CC(C)=CCCc1ccc2c(c1)C(=O)C=CC2=O` [NQ 1], the IC50 in experiment [1] and in experiment [2] was over 104 µM in each case.

On to heparin [reference compound], for which the “IC50 on Vero cells” value in [3] (setting [11]) is over 400 µg/mL.

On to `CCn1c(C)c(C(=O)OC)c2c1C(=O)c1cc3c(cc1C2=O)C(C)(C)CCC3` [HetQ 22], for which the IC50 in experiment [1] came to 73 ± 1.6 µM; in [2], 71.7 ± 1.8 µM; in experiment [3] (setting [10]) it was 183 ± 15.9 µM.

In the case of `Cc1ccc2[nH]c3c(c2c1)C(=O)c1ccc(CCCC(C)C)cc1C3=O` [HetQ 19], the IC50 was 77 ± 1.9 µM in experiment [1], over 72.4 µM in experiment [2] and 212 ± 8.6 µM in experiment [3] (setting [10]).

As for “Dextran sulfate [DS, reference compound]”, in experiment [5], the “Rf (reduction factor of the viral titer), HHV-1” value is recorded as 10^2. For the same compound, the “1 TCID50: non-toxic concentration that showed viral reduction factor, HHV-1” value in experiment [5] (48 h, tested 6.25-50 µg/mL) amounted to 0.5 µg/mL. Moreover, in [6] (setting [12]), the “Antiviral activity in simultaneous treatment, HHV-1” value is recorded as “active”. Besides, the “Antiviral activity in simultaneous treatment, HHV-2” value in [7] (setting [12]) is listed as “active”. In addition, the “IC50 on Vero cells” value in experiment [3] (setting [11]) is reported as over 400 µg/mL.

As for `Cc1cc(C)c2c3c(oc2c1)C(=O)c1cc(CCCC(C)C)ccc1C3=O` [HetQ 20], the results for the IC50 in experiment [1], in experiment [2] and in experiment [3] (setting [10]) were over 69.3 µM, 42.2 ± 0.7 µM and 153 ± 4.5 µM, respectively.

As for `NC(=O)c1ncn([C@@H]2O[C@H](CO)[C@@H](O)[C@H]2O)n1` [ribavirin, reference compound], the “Antiviral activity in post-infection treatment, DENV-2” value in experiment [8] is recorded as “active”. Further, the 50% inhibitory concentration (IC50) in experiment [3] (setting [13]) is over 400 µg/mL.

Regarding `CC1(C)CCCc2cc3c(cc21)C(=O)C(Cl)=C(Cl)C3=O` [AQ 12], the figures for the minimal effective concentration in [5] (tested 6.25-50 µg/mL) and in experiment [9] were over 50 µg/mL and 25 µg/mL, respectively. For the same compound, the “Rf (reduction factor of the viral titer), HHV-2” value is reported as 1 × 10^2 in experiment [9] and 10^2 in [9] (listed as 12). Besides, the IC50 came out at 38.5 ± 1.2 µM in experiment [1], 27.5 ± 0.6 µM in experiment [2] and 136 ± 4.4 µM in experiment [3] (setting [10]).

`Nc1nc2c(ncn2COCCO)c(=O)[nH]1` [A, Acyclovir, reference compound]: the “Rf (reduction factor of the viral titer), HHV-1” value in experiment [5] is 10^4. In addition, in experiment [5] (tested 6.25-50 µg/mL), the minimal effective concentration stood at 1.5 µg/mL. Besides, in experiment [9], the “Rf (reduction factor of the viral titer), HHV-2” value is 10^4 and the minimal effective concentration came out at 1.5 µg/mL. Moreover, the “Antiviral activity in post-infection treatment, HHV-1” value in experiment [6] (setting [14]) was “active”. The “Antiviral activity in post-infection treatment, HHV-2” value in [7] (setting [14]) is “active”. Besides, the IC50 in [3] (setting [13]) is over 400 µg/mL.

Take `Cc1c2c(nc3ccccc13)C(=O)c1cc(CCCC(C)C)ccc1C2=O` [HetQ 21]: the 50% inhibitory concentration (IC50) in [1] and in experiment [2] was over 69.9 µM throughout.

As to `CC(C)CCCc1ccc2c(c1)C(=O)C(Br)=C(Br)C2=O` [NQ 5], the IC50 came to 19.7 ± 0.3 µM in experiment [1], 23.5 ± 1.7 µM in experiment [2] and 15.7 ± 2.7 µM in experiment [3] (setting [10]).

The values above are taken from article PMC6479402, “Anti-Herpetic, Anti-Dengue and Antineoplastic Activities of Simple and Heterocycle-Fused Derivatives of Terpenyl-1,4-Naphthoquinone and 1,4-Anthraquinone” (Molecules, 2019).
